A short description of series [1]: in vivo. Further details: species or system Beagle dogs. The conditions noted are these: dog, 50 mg/kg. As for the experimental part:
The study of comparing the pharmacokinetic of the racemic oxiracetam and L-oxiracetam determines the dose orally and intravenously to Beagle dogs for 50 mg/kg.
Take six adult Beagle dogs, the numbers of female and male were equal, which were weighted 10.0±0.5 kg and randomly divided into three groups, and each group were two with same numbers of the male and female. Latin square crossover method was used (see Table 1). Beagle dogs were administered orally and intravenously at a dose of 50 mg/kg. L-oxiracetam samples with 99.3% (optically pure) of purity were used. Each route of administration was performed every week. Animals orally administered were fasted for 12 hours […] continued fasting three hours after administration. Blank blood was taken prior to administration. Blood sample were taken 1 mL from forelimbs vein into heparinized tubes in 0.083, 0.25, 0.5, 0.75, 1.0, 1.5, 2.0, 4.0, 6.0, 8.0, 12.0 and 24.0 hours after oral administration, or taken in 0.083, 0.25, 0.5, 0.75, 1.0, 1.5, 2.0, 4.0, 6.0, 8.0, 12.0 and 24.0 hours after intravenous administration, and centrifuged to obtain plasma. The concentrations of drugs in plasma were determined by LC-MS-MS method. The results in the table below 2-7.

In series [2] the test system is alcoholic coma mouse model. Kind of series: Alcohol-induced coma in mice, sleep time (duration of loss of righting reflex). It is filed as in vivo. The note with it: for wake-promoting effect on alcoholism-induced coma (in words): doses of Table 8. The protocol: • 1. Drugs and reagents: L-Oxiracetam, D-Oxiracetam and racemic oxiracetam; naloxone, purchased from Chongqing Yaoyou Pharmaceutical Co., Ltd.; anhydrous ethanol, purchased from Shanghai Chemical Reagent Co., Ltd. Physiological saline is commercially available. Each solution was freshly prepared. • 2. Preparation of ethanol solution: anhydrous ethanol was diluted with saline to produce 30% ethanol solution, freshly prepared. • 3. Experimental animals: Male mice weighing 18-22 grams were provided by the special committee, Sichuan experimental animal farms (License: SCXK (Chuan) 2008-14). Animal experiments facilities continue to maintain barriers environmental standards. Control of key environmental indicators: the temperature of 20.0-25.0° C., relative humidity of 40-70%. 10-20 air changes/hour, lighting:dark=14 h:10 h. Animals were housed in standard boxes, each box had 5. (B) Experimental Methods
1. Preparation of alcoholic coma mouse model: With reference to the literature (M. E L Yacoubi, C. Ledent, M. parmentier, et al Caffeine reduces hypnotic effects of alcohol through adenosine A2A receptor blockade [J] Neuropharmacology, 2003, 45(7):977-985) modeled the process of 30% ethanol solution intraperitoneally (0.2 ml/10 g).
2. Method of determination of states of consciousness of mouse discriminating: According to the literature (Jeffrey R. Stephens, Rene H. Levy. Effects of valproate and citrulline on ammonium-Induced encephalopathy [J] Epilepsia, 1994,35 (1):164-171) performed the determination of states of consciousness: level 1, reduced activity in the cage; level 2, limb ataxia associated with reduced activity; level 3, scrolled when placed in the bottom of the back of the cage (righting reflex), but could not stand; level 4, back into the cage end position cannot be corrected, but the damage manifested as physical stimulation retraction; level 5, righting reflex (Loss of Righting Reflex, LORR) and the lack of response to noxious stimuli. Level 4, 5, considered animal in a coma.
The 150 animals were randomly divided into 10 groups: model control group (saline only); […]; dextral Oxiracetam up two groups, respectively: 90,180 mg/kg group; L oxiracetam set up three groups, namely: 30 mg/kg, 90 mg/kg and 180 mg/kg group; naloxone group, a dose of 1.5mg/kg. After each group were successfully prepared animal models, random tables grouped righting reflex one minute after tail vein injection. The mice were observed duration of righting reflex, that sleep time. Statistical results: the experimental data with x±sd, said comparison between the groups were analyzed using ANOVA and q test, test level: α=0.05.

Series [3] has as its system ketamine-induced coma in mice. The experiment in a line: Ketamine-induced coma in mice, duration of loss of righting reflex. It is filed as in vivo, Kunming mice. The note with it: for Time of Sleep (The duration of reflex action, min): ketamine 120 mg/kg i.p. induced coma. As for the experimental part: • 1.1 Experimental animal and grouped 150 Kunming mice, male, weight (25.3±1.9) g, provided by the special committee of Sichuan experimental animal farms. (License: SCXK (Chuan) 2008-14). Animal experiments facilities continue to maintain barriers environmental standards. Control of key environmental indicators: the temperature of 20.0-25.0° C., relative humidity of 40-70%. 10-20 air changes/hour, lighting:dark=14 h:10 h. Animals were housed in standard boxes, each box 5.
Mice after three consecutive supine standing for 5 s can not be restored righting reflex recovery after three consecutive sit-stand for the righting reflex. • 1.4 Statistical analysis of data with x±sd was expressed using statistical software SPSS 12.0 for data analysis. The groups were compared using ANOVA, test level: A=0 05. 2. Results

In series [4] the test system is traumatic brain coma in rats. Kind of series: Traumatic brain coma in rats (Feeney method), coma level score. The series is classed as in vivo, SD rats. The note with it: for Remark: animals that survived: 10 animals, 8 h observation, cell wraps: All / survived.
For series [5] the following is noted: compared with the racemate; cited from earlier work.
[6] abbreviates: both sexes, Beagle, iv, Drug concentrations in plasma.
The mark [7] stands for this setting: alcohol-induced coma, 30 mg/kg tail vein injection.
The mark [8] stands for this setting: alcohol-induced coma, 180 mg/kg tail vein injection.
Where [9] appears, read: traumatic brain coma, 125 mg/kg, levels 1-6 (5 and 6 = coma).
[10] abbreviates: traumatic brain coma, 1 mg/kg, levels 1-6 (5 and 6 = coma).

For orientation: AUC(0-inf) means the area under the concentration-time curve extrapolated to infinity. High values mean more exposure, low ones less exposure.

In turn, `NC(=O)CN1CC(O)CC1=O` (racemic) [oxiracetam] gave a concentration at 1 h in series [1] (setting [6]) of 30800 ng/mL. The same compound came in with a concentration at 1.5 h in series [1] (setting [6]) of 38800 ng/mL. In series [1] (setting [6]), this compound gave a concentration at 2 h of 35300 ng/mL. In addition, the concentration at 4 h in series [1] (setting [6]) was found to be 13000 ng/mL. The concentration at 6 h in series [1] (setting [6]) worked out at 9350 ng/mL. Besides, the “Time of Sleep (The duration of reflex action, min)” value (shortened to “Time of Sleep”) in series [2] (alcohol-induced coma, 60 mg/kg tail vein injection) worked out at 96.8 ± 12.7 min; in series [2] (alcohol-induced coma, 150 mg/kg tail vein injection) it was 86.1 ± 9.4 min; in series [2] (alcohol-induced coma, 360 mg/kg tail vein injection), 65.1 ± 10.2 min; in series [3] (60 mg/kg), 21.3 ± 6.7 min; in series [3] (150 mg/kg), 15.3 ± 6.4 min; in series [3] (360 mg/kg) it was 14.2 ± 6.2 min. In addition, in series [2], the “wake-promoting effect on alcoholism-induced coma (in words)” value is recorded as “certain awaking effect”. Further, the “awaking effect on ketamine-induced coma (in words)” value (“awaking effect” for short) in series [3] (dose range 150-360 mg/kg) is reported as “also had such effect”.

As to `NC(=O)CN1C[C@H](O)CC1=O` [D-Oxiracetam], the “Time of Sleep” value was 105.3 ± 15.8 min in series [2] (setting [7]), 98.8 ± 11.6 min in series [2] (setting [8]), 25.6 ± 8.9 min in series [3] (30 mg/kg) and 22.8 ± 6.5 min in series [3] (180 mg/kg). In series [2], the “wake-promoting effect on alcoholism-induced coma (in words)” value is recorded as “basically had no effect”. Further, in series [3] (dose range 30-180 mg/kg), the “awaking effect” value is “no effect”.

In the case of `NC(=O)CN1C[C@@H](O)CC1=O` [L-oxiracetam, (S)-4-hydroxy-2-oxo-pyrrolidineacetamide], in series [1], the “absolute bioavailability estimated through AUC0−∞” value is reported as 65.76±9.12%. This compound registered an AUC(0-inf) in series [1] (iv) of 243 ± 37.8 µg·h/mL. Besides, in series [2] (alcohol-induced coma), the “effect of awaking relative to racemic oxiracetam” value is given as ~2 times. In addition, the “Time of Sleep” value in series [2] (setting [7]) was 85.8 ± 10.6 min; in series [2] (alcohol-induced coma, 75 mg/kg tail vein injection) it was 63.5 ± 9.8 min; in series [2] (setting [8]), 48.5 ± 9.1 min; in series [3] (30 mg/kg) it was 19.6 ± 5.6 min; in series [3] (75 mg/kg) it was 15.2 ± 4.9 min; in series [3] (180 mg/kg) it was 13.8 ± 3.8 min. Moreover, the “wake-promoting effect on alcoholism-induced coma (in words)” value in series [2] is listed as “obvious”. Further, in series [3] (dose range 30-180 mg/kg), the “awaking effect” value is listed as “significant awaking effect”. For the same compound, in series [4] (125 mg/kg, after 1 hour), the “wake-promoting effect on traumatic coma (in words)” value is reported as “significant improvement in awareness”. Besides, the “Remark: animals that survived” value in series [4] (traumatic brain coma, 125 mg/kg, 125 mg/kg) is “All”; in series [4] (traumatic brain coma, 125 mg/kg, listed as left oxiracetam, 125 mg/kg), “no occurrence of an animal died”. The “coma level score, post-traumatic observation point 1 h” value is 5.1 ± 0.88 in series [4] (setting [9]); 5.1 in series [4] (traumatic brain coma, 125 mg/kg, levels 1-6 (5 and 6 = coma), listed as left oxiracetam). Further, the “coma level score, post-traumatic observation point 2 h” value in series [4] (setting [9]) came out at 3.8 ± 0.78. In addition, the “coma level score, post-traumatic observation point 4 h” value in series [4] (setting [9]) turned out to be 3.0 ± 0.82. In addition, in series [4] (setting [9]), the “coma level score, post-traumatic observation point 8 h” value came to 2.0 ± 0.67. In addition, the “solubility (in words)” value in series [5] is listed as “significantly better than the racemate”.

With `C=CCN1CC[C@]23c4c5ccc(O)c4O[C@H]2C(=O)CC[C@@]3(O)[C@H]1C5` [Naloxone], in series [2] (alcohol-induced coma, 1.5 mg/kg tail vein injection), the “Time of Sleep” value came to 60.5 ± 7.8 min. Also, the “Time of Sleep” value in series [3] (1.5 mg/kg) came out at 13.5 ± 4.2 min. Besides, the “awaking effect” value in series [3] (positive reference drug 1.5 mg/kg) is “significant effect”. Further, the “wake-promoting effect on traumatic coma (in words)” value in series [4] (1 mg/kg, positive drug) is listed as “good wake-promoting effect”. In addition, the “Remark: animals that survived” value in series [4] (traumatic brain coma, 1 mg/kg) is recorded as “All”. Further, in series [4] (setting [10]), the “coma level score, post-traumatic observation point 1 h” value amounted to 4.4 ± 0.96; the “coma level score, post-traumatic observation point 2 h” value was 3.6 ± 0.84; the “coma level score, post-traumatic observation point 8 h” value came to 1.9 ± 0.88.

The record behind these values is patent publication US9532975B2, “Use of levo-oxiracetam and oxiracetam in preparation of medicines for preventing or treating coma” (CHONGQING RUNZE PHARMACEUTICAL COMPANY LIMITED., priority 2011, dated 2017).
